Measured values as given in PMC9655618 (Cancers, 2022).

Key:
[1] = Real-time monitoring of cell proliferation and cytotoxicity (YOYO-1); details: human, Ishikawa cells (ER+ endometrial cancer cells)
Protocol: (§1) To monitor long-term growth, human ER+ BC (T47-D, MCF-7, MCF-7/BUS), ER+ endometrial (Ishiwaka, High Point, NC, USA), or non-malignant breast (MCF-10A) cells were seeded at 3000–6000 cells per well. […] When indicated, cells were estrogen-deprived in a 10DCC-FBS supplemented medium for one week. […] Cytotoxicity was monitored by using YOYO-1 (Invitrogen, Waltham, MA, USA). Cell proliferation and cytotoxicity were monitored by sequential real-time microphotographs in an IncuCyte HD real-time imaging system (Essen BioScience, Hertfordshire, UK) for 5–10 days. The area under the curve (AUC) was then analyzed to know both the kinetics and dose-effect relationships. […] Next, cells were treated with VEH (0.05% DMSO) or test compounds for 5–10 days. Spheroid size and cell cytotoxicity were recorded with the Incucyte SX5 Live-Cell Analysis Instrument (Sartorius AG, Göttingen, Germany). To calculate the spheroid growth area, confluence measurements were taken considering the largest brightfield object area (µm^2). Cytotoxicity was monitored by using YOYO-1 (Essen Bioscience, Hertfordshire, UK).

Ishikawa cells = assay: as above; details: for effect on growth of E2-depleted Ishikawa cells: 4-OHTAM 3 μM, compounds 5 µM, 7 days; for IC50: Homo sapiens, Ishikawa, 120 h, read-out: IC50, cell proliferation (AUC)
Protocol: as §1

MCF-7 cells [2] = assay: Real-time monitoring of 2D cell growth (IncuCyte); assay type: cell-based; details: Homo sapiens, MCF7, 120 h; complete estrogenic media (10%FBS), 5 days, AUC
Protocol: as §1

[3] = system: T47D estrogen-depleted cells; assay: E2-induced proliferation of estrogen-depleted cells (AUC of growth kinetics); assay type: cell-based; details: E2-depleted conditions
Protocol: as §1

[4] = system: T47D cancer cell spheroids; assay: Real-time monitoring of 3D tumor spheroid growth; assay type: cell-based, human; details: 8 days
[5] = molecular target: T1, ERα protein in T47D E2-deprived cells (Homo sapiens, UniProt P03372); assay: Immunofluorescence (confocal microscopy); assay type: cell-based; details: 5 µM 24 h, then E2 1 nM 30 min
T1 construct: ERα protein expression were also explored in T47D E2-deprived BC cells; endogenous in cells; host or cells: T47D (steroid-deprived)
Protocol: T47D cells were seeded with steroid-deprived FBS (10% DCC-FBS) RPMI medium supplemented with L-Glutamine/HEPES/sodium pyruvate/PEST. Then, cells were seeded at 175,000 cells/well in 5% DCC-FBS in 6-well plates containing 22 × 22 mm coverslips (Menzelgläser, vWR, Radnor, PA, USA). […] After this, cells were washed with PBS, fixed in 4% paraformaldehide (PFA; Sigma-Aldrich, St. Louis, MO, USA) for 15 min, blocked-permeabilized in PBS-0.5% BSA-0.1% Triton X-100 (Thermo Scientific, Waltham, MA, USA) for 1 h, and, finally, incubated with mouse ERα (Santa Cruz Biotech, CA, USA) and rabbit β-catenin (C2206 Sigma-Aldrich, St. Louis, MO, USA) primary antibodies in the same blocking solution overnight at 4 °C within a hand-made humid chamber. After three washing with PBS-0.5% BSA-0.1% Triton X-100 (Thermo Scientific, Waltham, MA, USA), cells were incubated with anti-mouse Alexa fluor 488 (Life Technologies, CA, USA) or anti-rabbit Alexa 647 (Life Technologies, Carlsbad, CA, USA) secondary antibodies, containing DAPI (4′,6-diamidino-2-phenylindole; Sigma-Aldrich, St. Louis, MO, USA), for 1 h at room temperature. Finally, slides were mounted with Fluormount-G® (Thermo Fisher Scientific, Waltham, MA, USA), and cells were visualized using a confocal microscope Zeiss LSM 800 (Carl Zeiss AG, Jena, Germany). The fluorescent signal was quantified by using a segmentation method for image analysis.

MCF-7 cells [6] = assay: Drug combination assay with 4-OHTAM (MTT, Chou-Talalay); details: for IC50: Homo sapiens, MCF7, 72 h, read-out: IC50, cell viability inhibition, single agent
Protocol: Cells were seeded at 5000 and 7500 cells, per well, respectively, and cell viability was assessed by MTT assays 72 h after treatment. Briefly, cells were incubated with constant ratio combinations of indicated test compounds by doubling dilutions of the individual drugs over a wide range of concentrations [43]. […] Dose-effect curves of the individual or combined compounds were plotted and assessed by the median effect method of Chou and Talalay [43] using Calcusyn software 2.0 (Biosoft, Cambridge, UK), thus obtaining the combination index (CI) values. CI values less than 1, equal to 1, and greater than 1 indicated synergism, addition, and antagonism, respectively.

[7] = system: ERα, pS2 and PR mRNA in Ishikawa cells; assay: Quantitative real-time PCR of ERα-regulated genes; assay type: cell-based, human; details: for effect on E2-induced mRNA expression: 3 h pretreatment, E2 10 nM 24 h; for induction of basal mRNA level of PR gene: absence of E2
Protocol: (§2) For gene expression analysis, MCF-7 and Ishikawa cells were deprived of steroid hormones by using a 10DCC-FBS medium for five days. Then, 1,500,000 cells/dish were seeded in 5DCC-FBS, followed by treatment with test compounds. Total RNA was isolated by using TRItidy G™ (Panreac Applichem ITW Reagents, Darmstadt, Germany). The concentration and purity of RNA were determined with a NanoDrop 1000 spectrophotometer (Wilmington, NC, USA). Then, 1 µg of total RNA was reversed and amplified with the iScriptTM kit (Bio-Rad) following the manufacturer’s protocol. SYBR Green PCR Master mix (Applied Biosystems, Bedford, MA, USA) reagent and exon-specific primers for ERα were used for Real-time quantitative PCR (qPCR). Gene expression was analyzed with an Mx3005P qPCR System (Agilent, Santa Clara, CA, USA), and cycle threshold values were calculated using MxPro qPCR Software (Agilent, CA, USA). Target gene expression was normalized to the expression of the 18S housekeeping gene. Data were expressed as relative expression values according to the comparative CT method for qPCR [42].

[8] = system: ERα, pS2 and PR mRNA in MCF-7 cells; assay: Quantitative real-time PCR of ERα-regulated genes; assay type: cell-based, human; details: 3 h pretreatment, E2 10 nM 24 h; 32 5 µM, 35 10 µM, ICI 0.1 µM, 4-OHTAM 1 µM
Protocol: as §2

T47D cells = assay: MTT cell viability assay; assay type: cell-based, human; details: Homo sapiens, T47D, 72 h, 10%FBS growth media
Protocol: Straightforward, the tetrazolium salt 3-(4,5-methyltiazol-2yl-)-2,5diphenyl-tetrazolium bromide (MTT) (Applichen, Darmstadt, Germany) was added to cells, incubated for 2–4 h at 37 °C, and lysed in 10% SDS. The mitochondrial metabolization of the tetrazolium salt was determined by the analysis of the optical density at 595 nm, measured with the iMark microplate Reader (Bio–Rad, Irvine, CA, USA).

VERO cells = assay: MTT cell viability assay; assay type: cell-based, monkey; details: Primates, Vero, 72 h, 10%FBS growth media
Protocol: Straightforward, the tetrazolium salt 3-(4,5-methyltiazol-2yl-)-2,5diphenyl-tetrazolium bromide (MTT) (Applichen, Darmstadt, Germany) was added to cells, incubated for 2–4 h at 37 °C, and lysed in 10% SDS.

[9] = combination with 4-OHTAM, constant ratio, 72 h, CI <1 synergism

SMILES | EC50 at 5 days [1] [µM] | effect on growth of E2-depleted Ishikawa cells (Ishikawa cells) | IC50 (Ishikawa cells) [µM] | IC50 (MCF-7 cells [2]) [µM] | estrogenic effect on growth [3] | effect on spheroid growth [4] | effect on ERα protein levels by confocal microscopy [5] | IC50 (MCF-7 cells [6]) [µM] | CI for ED75 (MCF-7 cells [6]; [9]) | CI for ED90 (MCF-7 cells [6]; [9]) | effect on E2-induced mRNA expression [7] | induction of basal mRNA level of PR gene [7] [fold] | effect on E2-induced mRNA expression [8] | IC50 (T47D cells) [µM] | IC50 (VERO cells) [µM] | CI for ED25 (MCF-7 cells [6]; [9])
O=C1C(c2ccc([N+](=O)[O-])cc2)=CC(O)(c2ccccc2)N1Cc1ccccc1 (stereo not shown) [compound 35, 1-benzyl-5-hydroxy-3-(4-nitrophenyl)-5-phenyl-1H-pyrrol-2(5H)-one] | 10 | this effect was not observed | 3.81 | 4.3 ± 0.77 | did not increase the growth of ER+ BC cells | reduced the growth of T47D cancer cell spheroids | significantly decreased ERα protein levels both in nuclei and cytoplasmic compartments | 2.27 | 0.26 ± 0.07 | 0.32 ± 0.13 | notably downregulated E2-induced ERα and PR mRNA levels | 5 | inhibited E2-induced ERα, pS2 and PR mRNA expression | 5.31 ± 0.47 | 9.61 ± 0.16 | 
Cc1ccc(C2=CC(O)(c3ccccc3)N(Cc3ccccc3)C2=O)cc1C (stereo not shown) [compound 32, 1-benzyl-3-(3,4-dimethylphenyl)-5-hydroxy-5-phenyl-1H-pyrrol-2(5H)-one] | > 10 | this effect was not observed | 2.1 | 1.52 ± 1.25 | did not increase the growth of ER+ BC cells | reduced the growth of T47D cancer cell spheroids | showed no effects | 0.69 | 0.6725 ± 0.06 | 0.6395 ± 0.09 | significative reduction of PR-activated gene expression | 2.5 | inhibited E2-induced ERα, pS2 and PR mRNA expression | 10.6 ± 0.58 | 14.7 ± 1.31 | 0.762 ± 0.02
